≈ marks a conversion by molar mass, not a printed value. Like-named read-outs stand apart in the source and are kept apart here.
Experiments:
[1] = in vitro; settings: dog, Neutral Red IC50 (cytotoxic)
[2] = in vitro; settings: African green monkey
[3] = system: VZV; experiment: VZV plaque reduction assay in HFF cells; settings: for VZV SI (CC50/EC50): HFF Cells; for EC50: Human alphaherpesvirus 3, HFF, read-out: VZV Plaque Reduction EC50
[4] = Cytotoxicity by neutral red dye uptake, BSC-1 cells; settings: African green monkey
[5] = system: Hepatitis B Virus (HBV); experiment: Inhibition of HBV replication in 2.2.15 cells, extracellular (virion) HBV DNA; settings: for anti-HBV activity (in words): 2.2.15 cells; for EC50 / EC90: Hepatitis B virus, 216 h; for EC50: read-out: EC50 (50% effective dose), HBV Virion, 2.2.15 cells, extracellular (virion) HBV DNA, 9 days treatment; for EC90: read-out: EC90 (90% effective dose), HBV Virion, 2.2.15 cells, extracellular (virion) HBV DNA, 9 days treatment;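 on all read-outs here: extracellular virion HBV DNA in culture medium measured by slot blot hybridization with a 32P-labeled HBV probe, quantified against HBV DNA standards, after 9 days of daily dosing, compared with day 0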
[6] = system: Influenza A (H1N1) Texas/36/91; experiment: microbe, parasite or virus in culture; type: cell-based, influenza A virus; settings: Influenza A virus, MDCK; Influenza A (H1N1) Texas/36/91; read-out: CPE Inhibition EC50
[7] = system: Adenovirus Type 5; experiment: microbe, parasite or virus in culture; type: cell-based; settings: Human mastadenovirus C, A549, read-out: CPE Inhibition EC50
[8] = system: Measles Virus; experiment: Measles virus neutral red dye uptake in BSC-1 cells; type: cell-based; settings: Measles morbillivirus, BSC-1
[9] = system: Measles Virus; experiment: microbe, parasite or virus in culture; type: cell-based; settings: for EC50: Measles morbillivirus, BSC-1, Measles Virus, read-out: CPI Inhibition EC50
[10] = system: Parainfluenza Type 3 Virus; experiment: organism not typed; type: cell-based; settings: MA104; Parainfluenza Type 3 Virus; read-out: CPI Inhibition EC50
[11] = system: HSV-1; experiment: HSV-1 CPE inhibition in HFF cells; settings: for HSV-1 SI (CC50/EC50): HFF Cells; for EC50: Human alphaherpesvirus 1, HFF, read-out: HSV-1 CPE Inhibition EC50
[12] = system: Adenovirus Type 5; experiment: Adenovirus type 5 neutral red dye uptake in A549 cells; type: cell-based; settings: Human mastadenovirus C, A549; Adenovirus Type 5; read-out: Neutral Red EC50
[13] = system: Influenza B Panama/45/90; experiment: microbe, parasite or virus in culture; type: cell-based; settings: Influenza B virus, MDCK; Influenza B Panama/45/90; read-out: CPE Inhibition EC50
[14] = system: HSV-2; experiment: HSV-2 CPE inhibition in HFF cells; settings: for HSV-2 SI (CC50/EC50): HFF Cells; for EC50: Human alphaherpesvirus 2, HFF, read-out: HSV-2 CPE Inhibition EC50
[15] = in vitro; settings: African green monkey; remark: listed apart in the source
[16] = Cytotoxicity by neutral red dye uptake, MA-104 cells; settings: African green monkey, Neutral Red IC50 (cytotoxic)
[17] = system: Influenza A (H3N2) Beijing/32/92; experiment: microbe, parasite or virus in culture; type: cell-based, influenza A virus; settings: Influenza A virus, MDCK; Influenza A (H3N2) Beijing/32/92; read-out: CPE Inhibition EC50
[18] = system: Influenza A (H1N1) Texas/36/91; experiment: microbe, parasite or virus in culture; type: cell-based, influenza A virus; settings: Influenza A virus, MDCK; Influenza A (H1N1) Texas/36/91; read-out: Neutral Red EC50
[19] = Cytotoxicity (CC50) in HFF cells in the herpes virus tests; settings: human
[20] = system: HFF Cells; experiment: as above; settings: HFF Cells, HSV-2 test
[21] = in vitro; settings: human
[22] = system: Respiratory Syncytial Virus; experiment: microbe, parasite or virus in culture; type: cell-based; settings: human respiratory syncytial virus, MA104; read-out: Neutral Red EC50
[23] = system: HCMV; experiment: HCMV CPE inhibition in HFF cells; settings: for HCMV SI (CC50/EC50): HFF Cells; for EC50: Human betaherpesvirus 5, HFF, read-out: HCMV CPE Inhibition EC50
[24] = system: Influenza A (H3N2) Beijing/32/92; experiment: microbe, parasite or virus in culture; type: cell-based, influenza A virus; settings: Influenza A virus, MDCK; Influenza A (H3N2) Beijing/32/92; read-out: Neutral Red EC50
[25] = target: T1, HIV-1 RT (Human immunodeficiency virus type 1 group M subtype B, UniProt P03366); experiment: Anti-HIV-1 RT assay (recombinant enzyme); type: biochemical; settings: for inhibition at 200 µg/mL: read-out: Anti-HIV-1 RT % Inhibition at 200 μg/ml; for Anti-HIV-1 RT IC50: values in parentheses or in words
T1 construct: made in house; host or cells: Escherichia coli

[26] = system: Respiratory Syncytial Virus; experiment: microbe, parasite or virus in culture; type: cell-based; settings: human respiratory syncytial virus, MA104; read-out: CPE Inhibition EC50
[27] = system: Parainfluenza Type 3 Virus; experiment: organism not typed; type: cell-based; settings: MA104, read-out: Neutral Red EC50
[28] = in vitro; settings: dog
[29] = Cytotoxicity by neutral red dye uptake, A549 cells; settings: human
[30] = system: Influenza B Panama/45/90; experiment: microbe, parasite or virus in culture; type: cell-based; settings: Influenza B virus, MDCK, read-out: Neutral Red EC50
[31] = CPE Inhibition IC50 (cytotoxic), Respiratory Syncytial Virus test
[32] = CPI Inhibition IC50 (cytotoxic), Parainfluenza Type 3 Virus test
[33] = Parainfluenza Type 3 Virus test
[34] = Respiratory Syncytial Virus test
[35] = CPE Inhibition IC50 (50% cell inhibitory (cytotoxic) concentration), Influenza A (H1N1) test
[36] = CPE Inhibition IC50 (cytotoxic), Influenza A (H3N2) test
[37] = CPE Inhibition IC50 (cytotoxic), Influenza B test

What does the source list for O=C1CC(c2ccc(O)cc2)Oc2cc(O)c(-c3c(O)cc(O)c4c3OC(c3ccc(O)cc3)CC4=O)c(O)c21 (stereo not shown) [Rhusflavanone (9), rhusflavanone]?
IC50 ([1]; Influenza A (H1N1) test): 26 µg/mL (≈ 47.9 µM); IC50 ([1]; Influenza A (H3N2) test): 31 µg/mL (≈ 57.1 µM); IC50 [2, 31]: 18 µg/mL (≈ 33.2 µM); IC50 [2, 32]: 47 µg/mL (≈ 86.6 µM); VZV SI (CC50/EC50) [3]: <4; EC50 [3]: > 4 µg/mL; IC50 [4]: 40 µg/mL (≈ 73.7 µM); anti-HBV activity (in words) ([5]; listed as rhusflavanone): inactive; anti-HBV activity (in words) ([5]; listed as rhusflavanone (9)): little or no anti-HBV activity; EC50 [5]: > 100 µM; EC90 [5]: > 100 µM; EC50 [6]: > 10 µg/mL; EC50 [7]: 56 µg/mL (≈ 103 µM); EC50 [8]: 5 µg/mL (≈ 9.22 µM); activity against measles virus (in words) [9]: some slight activity; EC50 [9]: 14 µg/mL (≈ 25.8 µM); EC50 [10]: > 100 µg/mL; HSV-1 SI (CC50/EC50) [11]: 0; EC50 [11]: > 100 µg/mL; EC50 [12]: 33 µg/mL (≈ 60.8 µM); EC50 [13]: 4.1 µg/mL (≈ 7.56 µM); activity against HSV-2 (in words) [14]: active; HSV-2 SI (CC50/EC50) [14]: >6.4; EC50 [14]: 15.7 µg/mL (≈ 28.9 µM); IC50 [15]: 21 µg/mL (≈ 38.7 µM); IC50 [16, 33]: 30 µg/mL (≈ 55.3 µM); IC50 [16, 34]: 20 µg/mL (≈ 36.9 µM); EC50 [17]: > 32 µg/mL; EC50 [18]: 24 µg/mL (≈ 44.2 µM); CC50 at 3 days [19]: > 100 µg/mL; CC50 at 10 days [19]: 16 µg/mL (≈ 29.5 µM); CC50 at 14 days [19]: 13.7 µg/mL (≈ 25.3 µM); HSV-2 CPE Inhibition CC50 [20]: >100 µg/mL; IC50 [21]: 47 µg/mL (≈ 86.6 µM); EC50 [22]: 27 µg/mL (≈ 49.8 µM); HCMV SI (CC50/EC50) [23]: <3.4; EC50 [23]: > 4 µg/mL; EC50 [24]: 31 µg/mL (≈ 57.1 µM); activity against HIV-1 RT (in words) [25]: completely inactive; inhibition at 200 µg/mL [25]: 14.1%; Anti-HIV-1 RT IC50 [25]: Inactive; EC50 [26]: > 10 µg/mL; EC50 [27]: 85 µg/mL (≈ 157 µM); IC50 [28, 35]: 8.2 µg/mL (≈ 15.1 µM); IC50 [28, 36]: 24 µg/mL (≈ 44.2 µM); IC50 [28, 37]: 38 µg/mL (≈ 70 µM); IC50 [29]: 15 µg/mL (≈ 27.6 µM)

For O=C1CC(c2ccc(O)cc2)Oc2cc(O)c(-c3c(O)cc4c(c3O)C(=O)CC(c3ccc(O)cc3)O4)c(O)c21 (stereo not shown) [Succedaneaflavanone (11), succedaneaflavanone], which IC50 ([1]; Influenza A (H1N1) test) is on record?
Its IC50 is 5 µg/mL (≈ 9.22 µM).

What about the IC50 ([1]; Influenza A (H3N2) test) of the same compound?
The IC50 was 12 µg/mL (≈ 22.1 µM).

What about the IC50 ([1]; Influenza B test) of the same compound?
The IC50 was 7 µg/mL (≈ 12.9 µM).

What about the IC50 [2, 31] of the same compound?
Its IC50 is roughly 13 µg/mL (≈ 24 µM).

What about the IC50 [2, 32] of the same compound?
Its IC50 is roughly 22 µg/mL (≈ 40.6 µM).

What about the “VZV SI (CC50/EC50)” value [3] of the same compound?
The value was less than 3.

What about the “VZV SI (CC50/EC50)” value ([3]; listed as Succedaneaflavone (11)) of the same compound?
The value was less than 3.0.

And the EC50 [3]?
The EC50 was greater than 20 µg/mL.

And the IC50 [4]?
Its IC50 is less than 20 µg/mL.

And the “anti-HBV activity (in words)” value [5]?
The value was “inactive”.

And the “anti-HBV activity (in words)” value ([5]; listed as succendaneaflavanone)?
The value was “little or no anti-HBV activity”.

And the EC50 [5]?
The EC50 was greater than 100 µM.

What about the EC90 [5] of the same compound?
Its EC90 is greater than 100 µM.

What about the EC50 [6] of the same compound?
The EC50 was greater than 3.2 µg/mL.

What about the EC50 [7] of the same compound?
Its EC50 is 10 µg/mL (≈ 18.4 µM).

And the EC50 [8]?
Its EC50 is less than 12 µg/mL.

And the EC50 [9]?
The EC50 was roughly 32 µg/mL (≈ 59 µM).

What about the EC50 [10] of the same compound?
Its EC50 is greater than 10 µg/mL.

And the “HSV-1 SI (CC50/EC50)” value [11]?
Its value is less than 3.0.

What about the EC50 [11] of the same compound?
Its EC50 is greater than 20 µg/mL.

And the EC50 [12]?
The EC50 was 19 µg/mL (≈ 35 µM).

And the EC50 [13]?
Its EC50 is 0.97 µg/mL (≈ 1.79 µM).

And the “HSV-2 SI (CC50/EC50)” value [14]?
The value was less than 3.0.

And the EC50 [14]?
The EC50 was greater than 20 µg/mL.

What about the IC50 [15] of the same compound?
The IC50 was less than 23 µg/mL.

And the IC50 [16, 33]?
Its IC50 is roughly 29 µg/mL (≈ 53.5 µM).

What about the IC50 [16, 34] of the same compound?
The IC50 was roughly 10 µg/mL (≈ 18.4 µM).

What about the EC50 [17] of the same compound?
The EC50 was greater than 10 µg/mL.

What about the EC50 [18] of the same compound?
Its EC50 is 5.2 µg/mL (≈ 9.59 µM).

What about the CC50 at 3 days [19] of the same compound?
Its CC50 at 3 days is 60.7 µg/mL (≈ 112 µM).

And the CC50 at 10 days [19]?
Its CC50 at 10 days is 60 µg/mL (≈ 111 µM).

What about the CC50 at 14 days [19] of the same compound?
The CC50 at 14 days was 55.5 µg/mL (≈ 102 µM).

And the IC50 [21]?
Its IC50 is 22 µg/mL (≈ 40.6 µM).

And the EC50 [22]?
Its EC50 is roughly 16 µg/mL (≈ 29.5 µM).

What about the “HCMV SI (CC50/EC50)” value [23] of the same compound?
The value was less than 2.7.

And the EC50 [23]?
The EC50 was greater than 20 µg/mL.

What about the EC50 [24] of the same compound?
The EC50 was 12 µg/mL (≈ 22.1 µM).

And the EC50 [30]?
Its EC50 is 2.2 µg/mL (≈ 4.06 µM).

What about the “activity against HIV-1 RT (in words)” value [25] of the same compound?
Its value is “completely inactive”.

And the inhibition at 200 µg/mL [25]?
Its inhibition at 200 µg/mL is 22.1%.

And the “Anti-HIV-1 RT IC50” value [25]?
The value was “Inactive”.

And the EC50 [26]?
The EC50 was greater than 10 µg/mL.

And the EC50 [27]?
The EC50 was 23 µg/mL (≈ 42.4 µM).

And the IC50 [28, 35]?
The IC50 was 4.9 µg/mL (≈ 9.03 µM).

And the IC50 [28, 36]?
The IC50 was 12 µg/mL (≈ 22.1 µM).

What about the IC50 [28, 37] of the same compound?
The IC50 was 15 µg/mL (≈ 27.6 µM).

And the IC50 [29]?
The IC50 was 27 µg/mL (≈ 49.8 µM).
